Measured values reported in US20260234165A1, “MACROCYCLIC COMPOUNDS, PREPARATION METHOD THEREFOR, AND USE THEREOF” (GENFLEET THERAPEUTICS (SHANGHAI) INC., priority 2004, published 2026).

These compounds were tested on AsPC-1 cells (KRAS G12D mutation) (assay: 3D cell proliferation assay (CellTiter Glo-3D), AsPC-1). Conditions: 3D cell proliferation (CellTiter Glo-3D), medium with 2% FBS, read-out: AsPC-1 AP IC50.
Assay type: cell-based, human
Procedure, shortened: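 Cells seeded at 800 per well in medium with 2% FBS, treated next day with 3.16-fold dilution series (0.1% DMSO) for 5 days at 37°C. Viability by CellTiter-Glo 3D luminescence; inhibition normalised to DMSO and cell-free controls, IC50 by four-parameter fit.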

Compared with `CO[C@@H](C)c1ncc(C#CCN2CCCOCC2)cc1-c1c2c3cc(ccc3n1CC(F)(F)F)-c1csc(n1)C[C@H](NC(=O)[C@H]1[C@H](C)[C@@H]1C)C(=O)N1CCC[C@H](N1)C(=O)OCC(C)(C)C2` (atropisomer, axis not shown; (Ra)) [Compound Z700, N-((6^3S,4S,Z)-1^1-(2,2,2-trifluoroethyl)-(Ra)-1^2-(2-((S)-1-methoxyethyl)-(5-(3-(1,4-oxazepan-4-yl)prop-1-yn-1-yl))-pyridin-3-yl)-10,10-dimethyl-5,7-dioxo-6^1,6^2,6^3,6^4,6^5,6^6-hexahydro-1^1H-8-oxa-2(4,2)-thiazola-1(5,3)-indola-6(1,3)-pyridazinacycloundecaphane-4-yl)-2,3-dimethylcyclopropane-1-carboxamide], `CCn1c(-c2cc(C#CCN3CCCOCC3)cnc2C(C)C)c2c3cc(ccc31)-c1csc(n1)C[C@H](NC(=O)[C@H]1[C@H](C)[C@@H]1C)C(=O)N1CCC[C@H](N1)C(=O)OCC(C)(C)C2` (atropisomer, axis not shown; (Sa)) [Compound Z811-2, (1r,2R,3S)—N-((6^3S,4S,Z)—(Sa)-1-(5-(3-(1,4-oxazepan-4-yl)prop-1-yn-1-yl)-2-isopropylpyridin-3-yl)-1^1-ethyl-10,10-dimethyl-5,7-dioxo-6^1,6^2,6^3,6^4,6^5,6^6-hexahydro-1^1H-8-oxa-2(4,2)-thiazola-1(5,3)-indola-6(1,3)-pyridazinacycloundecaphane-4-yl)-2,3-dimethylcyclopropane-1-carboxamide] is 7.8-fold higher in IC50: 0.18 nM for the first, 1.41 nM for the second. The first is the more potent here.

Compared with `CCn1c(-c2cc(C#CCN3C4CCC3COC4)cnc2[C@H](C)OC)c2c3cc(ccc31)-c1csc(n1)C[C@H](NC(=O)[C@H]1[C@H](C)[C@@H]1C)C(=O)N1CCC[C@H](N1)C(=O)OCC(C)(C)C2` (atropisomer, axis not shown; (Ra)) [Compound Z711, (1r,2R,3S)—N-((6^3S,4S,Z)—(Ra)-1^2-(5-(3-(3-oxa-8-azabicyclo[3.2.1]octan-8-yl)prop-1-yn-1-yl)-2-((S)-1-methoxyethyl)pyridin-3-yl)-1^1-ethyl-10,10-dimethyl-5,7-dioxo-6^1,6^2,6^3,6^4,6^5,6^6-hexahydro-1^1H-8-oxa-2(4,2)-thiazola-1(5,3)-indola-6(1,3)-pyridazinacycloundecaphane-4-yl)-2,3-dimethylcyclopropane-1-carboxamide], `CCn1c(-c2cc(C#CCN3CCOC[C@H]3C)cnc2[C@H](C)OC)c2c3cc(ccc31)-c1csc(n1)C[C@H](NC(=O)[C@H]1[C@H](C)[C@@H]1C)C(=O)N1CCCC(N1)C(=O)OCC(C)(C)C2` (atropisomer, axis not shown; (Ra)) [Compound Z813] is 1.7-fold lower in IC50: 0.3 nM for the first, 0.18 nM for the second. The second is the more potent here.

With `CCn1c(-c2cc(C#CCN(C)CCOC)cnc2[C@H](C)OC)c2c3cc(ccc31)-c1csc(n1)C[C@H](NC(=O)[C@H]1[C@H](C)[C@@H]1C)C(=O)N1CCC[C@H](N1)C(=O)OCC(C)(C)C2` (atropisomer, axis not shown; (Ra)) [Compound Z788] the IC50 was 0.78 nM.

Same assay, conditions: Homo sapiens, ASPC1, 3D cell proliferation (CellTiter Glo-3D), medium with 2% FBS, read-out: AsPC-1 AP IC50

First: CCn1c(-c2cc(N3CCN4CC5(CC5)OC[C@@H]4C3)cnc2[C@H](C)OC)c2c3cc(ccc31)-c1csc(n1)C[C@H](NC(=O)[C@H]1[C@H](C)[C@@H]1C)C(=O)N1CCC[C@H](N1)C(=O)OCC1(CC1)C2 (atropisomer, axis not shown; (Ra)) [Compound Z13]
Second: CCn1c(-c2cc(N3CCN(CCS(C)(=O)=O)CC3)cnc2[C@H](C)OC)c2c3cc(ccc31)-c1csc(n1)C[C@H](NC(=O)[C@H]1[C@H](C)[C@@H]1C)C(=O)N1CCC[C@H](N1)C(=O)OCC1(CC1)C2 (single isomer, unassigned) [Compound Z367]
The IC50 of the first is 2.7-fold lower: 5 nM for the first, 13.5 nM for the second.

Going from `CCn1c(-c2cc(C#C[C@@H]3COCCN3C)cnc2[C@H](C)OC)c2c3cc(ccc31)-c1csc(n1)C[C@H](NC(=O)[C@H]1[C@H](C)[C@@H]1C)C(=O)N1CCC[C@H](N1)C(=O)OCC(C)(C)C2` (atropisomer, axis not shown; (Ra)) [Compound Z672, (1r,2R,3S)—N-((6^3S,4S,Z)-1^1-ethyl-(Ra)-1^2-(2-((S)-1-methoxyethyl)-5-(((R)-4-methylmorpholin-3-yl)ethynyl)pyridin-3-yl)-10,10-dimethyl-5,7-dioxo-6^1,6^2,6^3,6^4,6^5,6^6hexahydro-1^1H-8-oxa-2(4,2)-thiazola-1(5,3)-indola-6(1,3)-pyridazinacycloundecaphane-4-yl)-2,3-dimethylcyclopropane-1-carboxamide] to `CCn1c(-c2cc(C#CCN3CCC3)cnc2[C@H](C)OC)c2c3cc(ccc31)-c1csc(n1)C[C@H](NC(=O)[C@H]1[C@H](C)[C@@H]1C)C(=O)N1CCC[C@H](N1)C(=O)OCC(C)(C)C2` (single isomer, unassigned) [Compound Z554], the IC50 rises from 0.73 nM to 1.18 nM (1.6-fold).

First: CCn1c(-c2cc(C#CCN3CCC(C(F)(F)F)CC3)cnc2[C@H](C)OC)c2c3cc(ccc31)-c1csc(n1)C[C@H](NC(=O)[C@H]1[C@H](C)[C@@H]1C)C(=O)N1CCC[C@H](N1)C(=O)OCC(C)(C)C2 (atropisomer, axis not shown; (Ra)) [Compound Z778]
Second: CCn1c(-c2cc(C#CCN3CCCOCC3)cnc2[C@H](C)OC)c2c3cc(ccc31)-c1csc(n1)C[C@H](NC(=O)[C@H]1[C@H](C)[C@@H]1C)C(=O)N1CCC[C@H](N1)C(=O)OCC(C)(C)C2 (single isomer, unassigned) [Compound Z504]
The IC50 of the first is 6-fold higher: 2.39 nM for the first, 0.4 nM for the second.

Going from `CCn1c(-c2cc(C#CCN3CCN(C)C(=O)C3)cnc2[C@H](C)OC)c2c3cc(ccc31)-c1csc(n1)C[C@H](NC(=O)[C@H]1[C@H](C)[C@@H]1C)C(=O)N1CCC[C@H](N1)C(=O)OCC(C)(C)C2` (atropisomer, axis not shown; (Ra)) [Compound Z793] to `CCn1c(-c2cc(C#CCN3CCCN(C)CC3)cnc2[C@H](C)OC)c2c3cc(ccc31)-c1csc(n1)C[C@H](NC(=O)[C@H]1[C@H](C)[C@@H]1C)C(=O)N1CCC[C@H](N1)C(=O)OCC(C)(C)C2` (atropisomer, axis not shown; (Ra)) [Compound Z802, (1r,2R,3S)—N-((6^3S,4S,Z)-1^2-(5-(3-(4-methyl-1,4-diaza-1-yl)prop-1-yn-1-yl)-(Ra)-2-((S)-1-methoxyethyl)pyridin-3-yl)-1^1-ethyl-10,10-dimethyl-5,7-dioxo-6^1,6^2,6^3,6^4,6^5,6^6-hexahydro-1^1H-8-oxa-2(4,2)-thiazola-1(5,3)-indola-6(1,3)-pyridazinacycloundecaphane-4-yl)-2,3-dimethylcyclopropane-1-carboxamide], the IC50 rises from 0.19 nM to 0.34 nM (1.8-fold).

Going from `CCn1c(-c2cc(C#CCN3CCS(=O)(=O)CC3)cnc2[C@H](C)OC)c2c3cc(ccc31)-c1csc(n1)C[C@H](NC(=O)[C@H]1[C@H](C)[C@@H]1C)C(=O)N1CCC[C@H](N1)C(=O)OCC(C)(C)C2` (atropisomer, axis not shown; (Ra)) [Compound Z838, (1r,2R,3S)—N-((6^3S,4S,Z)—(Ra)-1^2-(5-(3-(1,1-dioxidothiomorpholino)prop-1-yn-1-yl)-2-((S)-1-methoxyethyl)pyridin-3-yl)-1^1-ethyl-10,10-dimethyl-5,7-dioxo-6^1,6^2,6^3,6^4,6^5,6^6-hexahydro-1^1H-8-oxa-2(4,2)-thiazola-1(5,3)-indola-6(1,3)-pyridazinacycloundecaphane-4-yl)-2,3-dimethylcyclopropane-1-carboxamide] to `CCn1c(-c2cc(C#CCN3CCCOCC3)cnc2[C@H](C)OC)c2c3cc(ccc31)-c1csc(n1)C[C@H](NC(=O)[C@H]1C[C@@H]1C)C(=O)N1CCC[C@H](N1)C(=O)OCC(C)(C)C2` (single isomer, unassigned) [Compound Z604], the IC50 rises from 0.03 nM to 0.74 nM (25-fold). The first is the more potent here.

First: CCn1c(-c2cc(C#CCN3CCS(=O)(=O)CC3)cnc2[C@H](C)OC)c2c3cc(ccc31)-c1csc(n1)C[C@H](Nc1nnc3cc(C)ccn13)C(=O)N1CCC[C@H](N1)C(=O)OCC(C)(C)C2 (atropisomer, axis not shown; (Ra)) [Compound Z911, (6^3S,4S,Z)—(Ra)-1^2-(5-(3-(1,1-dioxidothiomorpholino)prop-1-yn-1-yl)-2-((S)-1-methoxyethyl)pyridin-3-yl)-1^1-ethyl-10,10-dimethyl-4-((7-methyl-[1,2,4]triazolo[4,3-a]pyridin-3-yl)amino)-6^1,6^2,6^3,6^4,6^5,6^6-hexahydro-1^1H-8-oxa-2(4,2)-thiazola-1(5,3)-indola-6(1.3)-pyridazinacycloundecaphane-5,7-dione]
Second: CCn1c(-c2cc(C#CCN3CCCOCC3)cnc2[C@H](C)OC)c2c3cc(ccc31)-c1csc(n1)C[C@H](NC(=O)CC(C)C)C(=O)N1CCC[C@H](N1)C(=O)OCC(C)(C)C2 (single isomer, unassigned) [Compound Z803]
The IC50 of the first is 1.5-fold higher: 2.27 nM for the first, 1.49 nM for the second. The second is the more potent here.

First: CCn1c(-c2cc(C#CCN3CCCOCC3)cnc2[C@H](C)OC)c2c3cc(ccc31)-c1csc(n1)C[C@H](NC(=O)CC1CC1)C(=O)N1CCC[C@H](N1)C(=O)OCC(C)(C)C2 (atropisomer, axis not shown; (Ra)) [Compound Z915]
Second: CCO[C@@H](C)c1ncc(N2CCN(CCS(C)(=O)=O)CC2)cc1-c1c2c3cc(ccc3n1CC)-c1csc(n1)C[C@H](NC(=O)[C@H]1[C@H](C)[C@@H]1C)C(=O)N1CCC[C@H](N1)C(=O)OCC1(CC1)C2 (single isomer, unassigned) [Compound Z378-1]
The IC50 of the first is 5-fold lower: 2.82 nM for the first, 14.1 nM for the second. The first is the more potent here.
